Assay [1] concerns LPS-induced TNF-α production in THP-1 cells. The experiment in a line: Human TNF-α ELISA, LPS induced THP-1 cells. Type of assay: cell-based. As to conditions: THP-1, 12.5-50 μM pretreatment 30 min, 100 ng/ml LPS 4 h. How it is done: THP-1 cells were seeded in a 96 well plate at a density of 5×10^5 cells/well, and incubated with 100 nM phorbol-12-myristate-13-acetate (PMA) (Sigma) for 72 h. […] Dexamethasone at 1 μM (Sigma) was used as a positive control. After 4 h of stimulation, supernatants were collected for the quantification of human TNF-α using the Duoset enzyme-linked immunosorbent assay (ELISA) development kit (R&D Systems). AlamarBlue cell viability reagent (Invitrogen) was used to access cell integrity, after the supernatant was removed, at a fluorescent excitation wavelength of 555 nm and emission wavelength of 590 nm.
For orientation: ELISA stands for enzyme-linked immunosorbent assay.

For assay [2], the system named is caspase 3/7 in MCF-7 cells. The experiment in a line: Caspase-Glo 3/7 activation assay. Type of assay: cell-based, human. The settings on record: MCF-7, 4 h, concentration-dependent. The protocol: Caspase 3/7 and caspase 8 activities were analyzed using an in-situ luminescent maker in MCF-7 and BT20 cells respectively. […] Caspases activity was then determined using the Caspase-Glo 3/7 Assay (Promega) or the Caspase-Glo 8 Assay (Promega) according to the manufacturer's instructions. Briefly, cells were incubated with Caspase-Glo 3/7 substrate or Caspase-Glo 8 substrate and the luminescence of each sample was measured using a SpectraMax M2e Microplate Reader (Molecular Devices).

`CCCCCCCCCCCCC1=CC(=O)C=C(OC)C1=O` [DMDD, 2-dodecyl-6-methoxycyclohexa-2,5-diene-1,4-dione]: the “TNF-α level in supernatants relative to LPS alone” value in assay [1] is given as “significant reduction”. Also, in assay [2], the “caspase 3/7 activity vs untreated cells” value is on record as “increased significantly”.

The values above are taken from US10993920B2, “2-dodecyl-6-methoxycyclohexa-2,5-diene-1,4-dione as a cancer therapeutic” (MIDDLE TENNESSEE STATE UNIVERSITY, priority 2014, dated 2021).
